Values quoted from earlier work, collected in patent US20210393650A1, “Designing Treatments for Chemotherapy-Induced and Age-Related Menopausal Symptoms Using Combinations of Natural Products and Prescription Medications” (Tess Ventures, Inc., priority 2018, published 2021).

Key:
[1] = test system: humans; conditions: for effect on anxiety: humans, low to moderate doses
[2] = test system: postmenopausal women; conditions: human, in vivo
[3] = test system: ovariectomized rat
[4] = test system: CB1 receptor; conditions: centrally-mediated, through the CB1 receptor

For `C=C(C)[C@@H]1CCC(C)=C[C@H]1c1c(O)cc(CCCCC)cc1O` [CBD, 2-[(1R,6R)-3-methyl-6-prop-1-en-2-ylcyclohex-2-en-1-yl]-5-pentyl-benzene-1,3-diol], the effect on anxiety [1] is listed as “anxiolytic effects” and the effect on insomnia ([1]; medium to high doses) is listed as “sedative effect”.
In the case of `OCCOc1ccc(/C(=C(/CCCl)c2ccccc2)c2ccccc2)cc1` [ospemifene, Z-2-[4-(4-chloro-1,2-diphenyl-but-1-enyl)-phenoxy]ethanol], the “treatment of VVA symptoms versus local estrogen” value [2] is given as “equivalent to or better than local estrogen”.
For `COc1cc(/C=C/C(=O)CC(=O)/C=C/c2ccc(O)c(OC)c2)ccc1O` [curcumin], the tail skin temperature [3] is listed as “significant suppression”.
For `CCCCCc1cc(O)c2c(c1)OC(C)(C)C1CCC(C)=CC21` (stereo not shown) [Δ^9-THC, 6,6,9-trimethyl-3-pentyl-6a,7,8,10a-tetrahydrobenzo[c]chromen-1-ol], the effect on anxiety [1] is given as “anxiolytic effects”, the “effect on sleep quality” value ([1]; insomnia) is given as “enhance short-term sleep quality” and the “effect on body temperature” value [4] is given as “hypothermic effect”.
